Data published in patent publication US12617779B2, “Self degradation-type CDK9 inhibitor prodrug and liposome encapsulating same” (Sumitomo Pharma Co., Ltd., priority 2021, dated 2026).
Blank lines part the entries; values can stand above or below the compound they belong to.

What was measured:
[1] = Liposome encapsulation test, remote loading method (Experimental Example 4); assay type: physicochemical;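 as to Encapsulation efficiency: encapsulated compound as percent of compound amount introduced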;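 as to Encapsulation rate: encapsulated compound as percent of compound in liposome solution after insolubles removed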
Method: For Example 1, Example 2, Example 3, Example 4, Example 5, Example 6, Example 7, Example 8, Example 9, Example 10, Example 11, Example 12, Example 13, Example 14, Example 15, Example 16, Example 17 and Alvocidib, an encapsulation test in liposomes was performed using a remote loading method.
<Liposome Encapsulation Test of Example 1, Example 2, Example 5, Example 6, Example 9, Example 10, Example 11, Example 12, Example 13, Example 14, Example 15, and Example 16>
Hydrogenated soybean phosphatidylcholine (COATSOME NC-21E, manufactured by NOF CORPORATION, 7.77 g), cholesterol (manufactured by Sigma, 2.78 g) and distearoylphosphatidylethanolamine-methoxypolyethylene glycol 2000 (SUNBRIGHT DSPE-020CN, manufactured by NOF CORPORATION, 2.47 g) were dissolved in tert-butyl alcohol (720 mL) warmed to 65° C. The solution was placed in an eggplant flask and frozen in a dry ice-acetone bath, and then the tert-butyl alcohol was removed by evaporation under reduced pressure to give a lipid mixture.
To the above lipid mixture was added a 250 mM ammonium sulfate solution (240 mL), and the mixture was warmed to 65° C., and dispersed by a homogenizer (ULTRA-TURRAX, manufactured by IKA) to give a crude liposome dispersion. Then, the crude liposome dispersion was dispersed by a high pressure homogenizer (Nano-Mizer NM2, manufactured by YOSHIDA KIKAI CO., LTD.) at a pressure of 100 MPa to give liposomes with an average particle size (Z-average) of about 80 nm. The liposome outer solution was replaced with 10 mM L-histidine/10% sucrose solution (pH 6.5) using a dialysis cassette (Slide-A-Lyzer G2 Dialysis Cassettes 20K MWCO, manufactured by Thermo Scientific) to give an empty liposome solution. The solution was filtered through a 0.22 μm membrane filter, and a 10 mM L-histidine/10% sucrose solution (pH 6.5) was added thereto to adjust the total lipid concentration to 50 mM (50 μmol/mL). The lipid concentration was determined by quantitatively analyzing cholesterol using HPLC and calculating the total lipid concentration from the lipid mixing ratio. The amount for the above adjustment was increased or decreased as appropriate.
The compound (10 mg) was weighed, and the empty liposome solution (1 mL) with a total lipid concentration of 50 mM was added thereto. The solution was adjusted to pH 5 to 6 with 1 mol/L hydrochloric acid or 1 mol/L aqueous sodium hydroxide solution as necessary, warmed in a 65° C. water bath for 2 to 3 minutes, and ice-cooled. The mixture was centrifuged at 15,000×g for 5 minutes to precipitate and remove insoluble substances.
The liposome solution (100 μL) after removing insoluble substances was taken on an ultrafiltration filter (Amicon Ultra, 100K, 0.5 mL, manufactured by Merck) and centrifuged at 4° C., 15,000×g for 10 minutes. The compound concentrations in the liposome solution after removing insoluble substances and in the filtrate after ultrafiltration were determined by HPLC, and the encapsulation rate, encapsulation efficiency, and encapsulated compound content per 50 μmol of lipid were calculated by the following formula.
The measurement conditions for HPLC are as follows.
An empty liposome solution with a total lipid concentration of 75 mM was prepared by the same procedure as for the above example compound group. Each compound was weighed, and the empty liposome solution with a total lipid concentration of 75 mM was added thereto such that the compound concentration became 15 mg/mL. The solution was adjusted to pH 5 to 6 with 1 mol/L hydrochloric acid or 1 mol/L aqueous sodium hydroxide solution, warmed in a 65° C. water bath for 3 minutes, and ice-cooled. Hereafter, the encapsulation rate and encapsulation efficiency were calculated by the same procedure as for the above example compound group. The encapsulated compound content per 50 μmol of lipid was calculated by the following formula.
[formula] <Liposome Encapsulation Test of Example 7, Example 8 and Example 17> […]

[2] = Evaluation of conversion rate to active form in human plasma (Experimental Example 3); assay type: in vitro ADME; conditions: human, 0.2 μmol/L
Method: (§1) For Example 1, Example 2, Example 3, Example 4, Example 5, Example 6, Comparative Example 3, Comparative Example 4, Comparative Example 6, Comparative Example 7, Comparative Example 8, Comparative Example 9, Comparative Example 10 and Comparative Example 12, the attrition rate of the test compound and the conversion rate of the test compound to Alvocidib in human plasma and BALB/c mouse plasma were calculated by the following method.
(§2) The test compound was added to human plasma or BALB/c mouse plasma at a concentration of 0.2 μmol/L, and incubated at 37° C. The peak areas of the test compound and Alvocidib in the sample were determined by LC-MS/MS after 0, 30 and 60 minutes for Example 1, Example 2, Example 3, Example 4, Example 5 and Example 6, and after 0, 60 and 120 minutes for Comparative Example 3, Comparative Example 4, Comparative Example 6, Comparative Example 7, Comparative Example 8, Comparative Example 9, Comparative Example 10 and Comparative Example 12, and the attrition rate of the test compound and the conversion rate of the test compound to Alvocidib were calculated by the following formula. Attrition rate of test compound (%):(peak area of test compound in sample/peak area of test compound in sample after 0 minute)×100 Conversion rate to Alvocidib (%):(peak area of Alvocidib in sample/peak area of Alvocidib in reaction solution containing 0.2 μmol/L Alvocidib)×100
(§3) The measurement conditions for LC-MS/MS are as follows. • HPLC: Prominence system (Shimadzu Corporation) • MS/MS: • Example 1, Example 2, Example 3, Example 4, Example 5, Example 6, Comparative Example 8 (mouse), Comparative Example 10 (mouse) and Comparative Example 12 (mouse) • QTRAP5500 (SCIEX) • Comparative Example 6, Comparative Example 7, Comparative Example 8 (human), Comparative Example 9, Comparative Example 10 (human) and Comparative Example 12 (human) • 4000 QTRAP (SCIEX) • column: • other than Example 3 and Example 4 • Cadenza CD-C18, 3 μm, 50×2 mm (Imtakt Corporation) • Example 3 and Example 4 • Kinetex C8, 2.6 μm, 50×2.1 mm (Phenomenex) • column temperature: 40° C. • mobile phase: • A: water containing 0.1% formic acid • B: acetonitrile containing 0.1% formic acid • A/B (min): • Example 1, Example 2, Example 5, Example 6, Comparative Example 8 (mouse), Comparative Example 10 (mouse) and Comparative Example 12 (mouse) • 90/10(0)→40/60(5.0)→10/90(5.1)→10/90(6.5)→90/10(6.6)→90/10(8.0) • Example 3 and Example 4 • 86/14(0)→86/14(3.5)→10/90(5.5)→10/90(6.5)→86/14(6.6)→86/14(9.5) • Comparative Example 6, Comparative Example 7, Comparative Example 8 (human), Comparative Example 9, Comparative Example 10 (human) and Comparative Example 12 (human) • 90/10(0)→10/90(2.5)→10/90(3.5)→90/10(3.6)→90/10(5.0) • flow rate: 0.4 mL/min • detection: ESI (positive mode) • injection: 1 to 5 μL

[3] = Evaluation of conversion rate to active form in BALB/c mouse plasma (Experimental Example 3); assay type: in vitro ADME; conditions: BALB/c, mouse, 0.2 μmol/L
Method: as §1, §2, §3

[4] = Evaluation of conversion rate to active form in buffer solution (Experimental Example 1); assay type: physicochemical
How it was run: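 25 umol/L cpd, 37° C; 50 mM citrate pH 5.0/5.5, 50 mM phosphate pH 6.0/6.5/7.0/7.4. HPLC at 0–3 h: residual rate and Alvocidib production rate.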

[5] = Compound concentration when encapsulated 10 mg/mL
[6] = Compound concentration when encapsulated 5 mg/mL

Structure (SMILES): CN1CC[C@H](c2c(OC(=O)N(C)C[C@@H]3COCCN3)cc(O)c3c(=O)cc(-c4ccccc4Cl)oc23)[C@H](O)C1 [Example 17, 2-(2-chlorophenyl)-5-hydroxy-8-[(3S,4R)-3-hydroxy-1-methylpiperidin-4-yl]-4-oxo-4H-1-benzopyran-7-yl methyl{[(3R)-morpholin-3-yl]methyl}carbamate]
Encapsulated compound content per 50 μmol of lipid [1, 5]: 2.4 mg | Encapsulation efficiency [1, 5]: 23.8% | Encapsulation rate [1, 5]: 26.5%

Encapsulated compound content per 50 μmol of lipid [1, 6]: 4.8 mg | Encapsulation efficiency [1, 6]: 96.2% | Encapsulation rate [1, 6]: 99.5% | Encapsulation rate [1, 5]: not encapsulated due to gelation | Encapsulation in liposomes ([1]; concentration 5 mg/mL): could be encapsulated in liposomes | Encapsulation in liposomes ([1]; concentration of 10 mg/mL): could not be encapsulated in liposomes
Structure (SMILES): CN1CC[C@H](c2c(O)cc(O)c3c(=O)cc(-c4ccccc4Cl)oc23)[C@H](O)C1.Cl [Alvocidib hydrochloride, 2-(2-chlorophenyl)-5,7-dihydroxy-8-[(3S,4R)-3-hydroxy-1-methylpiperidin-4-yl]-4H-chromen-4-one hydrochloride, reference compound]

Production rate (%) of Alvocidib ([2]; 0 min): 4% | Residual rate (%) of test compound ([2]; 0 min): 100% | Production rate (%) of Alvocidib ([2]; 60 min): 12% | Residual rate (%) of test compound ([2]; 60 min): 87% | Production rate (%) of Alvocidib ([2]; 120 min): 16% | Residual rate (%) of test compound ([2]; 120 min): 94% | Production rate (%) of Alvocidib ([3]; 0 min): 19% | Residual rate (%) of test compound ([3]; 0 min): 100% | Production rate (%) of Alvocidib ([3]; 60 min): 94% | Residual rate (%) of test compound ([3]; 60 min): 14% | Production rate (%) of Alvocidib ([3]; 120 min): 107% | Residual rate (%) of test compound ([3]; 120 min): 4% | Production rate of Alvocidib ([4]; pH5.0, 0 hr): 16.1% | Residual rate ([4]; pH5.0, 0 hr): 83.4% | Stability in buffer solution at pH 5 ([4]; pH 5, 37° C., up to 2 or 3 hours): unstable | Production rate of Alvocidib ([4]; pH5.0, 0.5 hr): 17.7% | Residual rate ([4]; pH5.0, 0.5 hr): 81.9% | Production rate of Alvocidib ([4]; pH5.0, 1 hr): 19.2% | Residual rate ([4]; pH5.0, 1 hr): 80.4% | Production rate of Alvocidib ([4]; pH5.0, 2 hr): 21.6% | Residual rate ([4]; pH5.0, 2 hr): 78.1% | Production rate of Alvocidib ([4]; pH5.0, 3 hr): 25.7% | Residual rate ([4]; pH5.0, 3 hr): 73.9% | Production rate of Alvocidib ([4]; pH5.5, 0 hr): 16.1% | Residual rate ([4]; pH5.5, 0 hr): 83.4% | Production rate of Alvocidib ([4]; pH5.5, 0.5 hr): 18.8% | Residual rate ([4]; pH5.5, 0.5 hr): 80.7% | Production rate of Alvocidib ([4]; pH5.5, 1 hr): 21.4% | Residual rate ([4]; pH5.5, 1 hr): 78.3% | Production rate of Alvocidib ([4]; pH5.5, 2 hr): 26.2% | Residual rate ([4]; pH5.5, 2 hr): 73.5% | Production rate of Alvocidib ([4]; pH5.5, 3 hr): 32.0% | Residual rate ([4]; pH5.5, 3 hr): 67.6% | Production rate of Alvocidib ([4]; pH6.0, 0 hr): 16.3% | Residual rate ([4]; pH6.0, 0 hr): 83.5% | Production rate of Alvocidib ([4]; pH6.0, 0.5 hr): 27.2% | Residual rate ([4]; pH6.0, 0.5 hr): 72.6% | Production rate of Alvocidib ([4]; pH6.0, 1 hr): 36.3% | Residual rate ([4]; pH6.0, 1 hr): 63.5% | Production rate of Alvocidib ([4]; pH6.0, 2 hr): 62.9% | Residual rate ([4]; pH6.0, 2 hr): 36.7% | Production rate of Alvocidib ([4]; pH6.0, 3 hr): 65.4% | Residual rate ([4]; pH6.0, 3 hr): 34.5% | Production rate of Alvocidib ([4]; pH6.5, 0 hr): 16.5% | Residual rate ([4]; pH6.5, 0 hr): 83.3% | Production rate of Alvocidib ([4]; pH6.5, 0.5 hr): 33.1% | Residual rate ([4]; pH6.5, 0.5 hr): 66.7% | Production rate of Alvocidib ([4]; pH6.5, 1 hr): 45.9% | Residual rate ([4]; pH6.5, 1 hr): 53.9% | Production rate of Alvocidib ([4]; pH6.5, 2 hr): 54.4% | Residual rate ([4]; pH6.5, 2 hr): 45.2% | Production rate of Alvocidib ([4]; pH6.5, 3 hr): 79.4% | Residual rate ([4]; pH6.5, 3 hr): 20.4% | Production rate of Alvocidib ([4]; pH7.0, 0 hr): 16.6% | Residual rate ([4]; pH7.0, 0 hr): 83.1% | Production rate of Alvocidib ([4]; pH7.0, 0.5 hr): 35.4% | Residual rate ([4]; pH7.0, 0.5 hr): 64.4% | Production rate of Alvocidib ([4]; pH7.0, 1 hr): 49.3% | Residual rate ([4]; pH7.0, 1 hr): 50.5% | Production rate of Alvocidib ([4]; pH7.0, 2 hr): 67.6% | Residual rate ([4]; pH7.0, 2 hr): 32.1% | Production rate of Alvocidib ([4]; pH7.0, 3 hr): 83.5% | Residual rate ([4]; pH7.0, 3 hr): 16.4% | Production rate of Alvocidib ([4]; pH7.4, 0 hr): 16.7% | Residual rate ([4]; pH7.4, 0 hr): 83.1% | Production rate of Alvocidib ([4]; pH7.4, 0.5 hr): 34.2% | Residual rate ([4]; pH7.4, 0.5 hr): 65.6% | Production rate of Alvocidib ([4]; pH7.4, 1 hr): 47.4% | Residual rate ([4]; pH7.4, 1 hr): 52.4% | Production rate of Alvocidib ([4]; pH7.4, 2 hr): 67.0% | Residual rate ([4]; pH7.4, 2 hr): 32.7% | Production rate of Alvocidib ([4]; pH7.4, 3 hr): 81.4% | Residual rate ([4]; pH7.4, 3 hr): 18.5%
Structure (SMILES): CN1CC[C@H](c2c(O)cc(O)c3c(=O)cc(-c4ccccc4Cl)oc23)[C@H](OC(=O)CN)C1 [Comparative Example 8, reference compound]
